Experimental data published in the NIST ThermoML archive (doi:10.1021/je030236t).

Columns and labels:
[1] = Molar enthalpy of transition or fusion; conditions: Crystal; DSC
[2] = molar enthalpy of vaporization or sublimation; conditions: 298.15 K; Liquid
[3] = Liquid

c1ccc(-c2cc(-c3ccccc3)cc(-c3ccccc3)c2)cc1 [1,3,5-triphenylbenzene]
Conditions	Molar enthalpy of transition or fusion [kcal/mol]
[1]	7.43

CCCCCCCCCCCCCCCCCCCCCCCCCCCCCCCC [dotriacontane]
Conditions	molar enthalpy [kcal/mol]
[2]	38.8

[3]
Conditions	vapor or sublimation pressure [kPa]
298.15 K	3.62e-12
310 K	4.33e-11
320 K	2.95e-10
330 K	1.74e-09
340 K	8.99e-09
350 K	4.12e-08
360 K	1.69e-07
370 K	6.31e-07
380 K	2.14e-06
390 K	6.71e-06
400 K	1.95e-05
410 K	5.27e-05
420 K	0.000134
430 K	0.000321
440 K	0.000729
450 K	0.00158
460 K	0.00325
470 K	0.00643
480 K	0.0122
490 K	0.0224
500 K	0.0398
510 K	0.0684
520 K	0.114
530 K	0.185
540 K	0.294
550 K	0.454
560 K	0.687
570 K	1.02
580 K	1.48

CCCCCCCCCCCCCCCCCCCCCCCCCCCCCCC [hentriacontane]
Conditions	molar enthalpy [kcal/mol]
[2]	37.6

[3]
Conditions	vapor or sublimation pressure [kPa]
298.15 K	1.11e-11
310 K	1.23e-10
320 K	7.88e-10
330 K	4.39e-09
340 K	2.15e-08
350 K	9.39e-08
360 K	3.69e-07
370 K	1.32e-06
380 K	4.3e-06
390 K	1.3e-05
400 K	3.64e-05
410 K	9.56e-05
420 K	0.000236
430 K	0.00055
440 K	0.00122
450 K	0.00256
460 K	0.00517
470 K	0.01
480 K	0.0187
490 K	0.0336
500 K	0.0585
510 K	0.0989
520 K	0.163
530 K	0.26
540 K	0.406
550 K	0.619
560 K	0.925
570 K	1.35
580 K	1.95

CCCCCCCCCCCCCCCCCCCCCCCCCCCCCCCCCCCCC [heptatriacontane]
Conditions	molar enthalpy [kcal/mol]
[2]	44.8

[3]
Conditions	vapor or sublimation pressure [kPa]
298.15 K	1.49e-14
310 K	2.63e-13
320 K	2.43e-12
330 K	1.89e-11
340 K	1.26e-10
350 K	7.35e-10
360 K	3.77e-09
370 K	1.72e-08
380 K	7.09e-08
390 K	2.65e-07
400 K	9.09e-07
410 K	2.87e-06
420 K	8.43e-06
430 K	2.31e-05
440 K	5.96e-05
450 K	0.000145
460 K	0.000335
470 K	0.000735
480 K	0.00154
490 K	0.0031
500 K	0.006
510 K	0.0112
520 K	0.0202
530 K	0.0353
540 K	0.0598
550 K	0.0987
560 K	0.159
570 K	0.25
580 K	0.383

CCCCCCCCCCCCCCCCCCCCCCCCCCCCCCCCCCCC [hexatriacontane]
Conditions	molar enthalpy [kcal/mol]
[2]	43.7

[3]
Conditions	vapor or sublimation pressure [kPa]
298.15 K	4.51e-14
310 K	7.39e-13
320 K	6.41e-12
330 K	4.72e-11
340 K	3e-10
350 K	1.66e-09
360 K	8.16e-09
370 K	3.58e-08
380 K	1.42e-07
390 K	5.12e-07
400 K	1.7e-06
410 K	5.2e-06
420 K	1.48e-05
430 K	3.96e-05
440 K	9.96e-05
450 K	0.000237
460 K	0.000534
470 K	0.00115
480 K	0.00236
490 K	0.00467
500 K	0.00888
510 K	0.0163
520 K	0.0289
530 K	0.0498
540 K	0.0834
550 K	0.136
560 K	0.216
570 K	0.336
580 K	0.51

CCCCCCCCCCCCCCCCCCCCCCCCCCCCCCCCCCCCCC [octatriacontane]
Conditions	molar enthalpy [kcal/mol]
[2]	46

[3]
Conditions	vapor or sublimation pressure [kPa]
298.15 K	5.13e-15
310 K	9.81e-14
320 K	9.59e-13
330 K	7.88e-12
340 K	5.54e-11
350 K	3.38e-10
360 K	1.81e-09
370 K	8.6e-09
380 K	3.67e-08
390 K	1.42e-07
400 K	5.03e-07
410 K	1.64e-06
420 K	4.95e-06
430 K	1.39e-05
440 K	3.68e-05
450 K	9.16e-05
460 K	0.000216
470 K	0.000484
480 K	0.00104
490 K	0.00212
500 K	0.00417
510 K	0.00791
520 K	0.0145
530 K	0.0257
540 K	0.0441
550 K	0.0738
560 K	0.12
570 K	0.191
580 K	0.296

CCCCCCCCCCCCCCCCCCCCCCCCCCCCCCCCCCC [pentatriacontane]
Conditions	molar enthalpy [kcal/mol]
[2]	42.5

[3]
Conditions	vapor or sublimation pressure [kPa]
298.15 K	1.22e-13
310 K	1.86e-12
320 K	1.53e-11
330 K	1.07e-10
340 K	6.52e-10
350 K	3.46e-09
360 K	1.63e-08
370 K	6.91e-08
380 K	2.64e-07
390 K	9.25e-07
400 K	2.97e-06
410 K	8.87e-06
420 K	2.46e-05
430 K	6.42e-05
440 K	0.000158
450 K	0.000367
460 K	0.000812
470 K	0.00171
480 K	0.00346
490 K	0.00673
500 K	0.0126
510 K	0.0228
520 K	0.0399
530 K	0.0678
540 K	0.112
550 K	0.181
560 K	0.284
570 K	0.436
580 K	0.657

CCCCCCCCCCCCCCCCCCCCCCCCCCCCCCCCCC [tetratriacontane]
Conditions	molar enthalpy [kcal/mol]
[2]	41.3

[3]
Conditions	vapor or sublimation pressure [kPa]
298.15 K	3.83e-13
310 K	5.39e-12
320 K	4.16e-11
330 K	2.75e-10
340 K	1.58e-09
350 K	7.97e-09
360 K	3.59e-08
370 K	1.45e-07
380 K	5.34e-07
390 K	1.8e-06
400 K	5.58e-06
410 K	1.61e-05
420 K	4.34e-05
430 K	0.00011
440 K	0.000263
450 K	0.000596
460 K	0.00129
470 K	0.00266
480 K	0.00527
490 K	0.01
500 K	0.0184
510 K	0.0328
520 K	0.0564
530 K	0.0944
540 K	0.154
550 K	0.244
560 K	0.379
570 K	0.575
580 K	0.856

CCCCCCCCCCCCCCCCCCCCCCCCCCCCCCCCC [tritriacontane]
Conditions	molar enthalpy [kcal/mol]
[2]	40.1

[3]
Conditions	vapor or sublimation pressure [kPa]
298.15 K	1.19e-12
310 K	1.54e-11
320 K	1.11e-10
330 K	6.95e-10
340 K	3.79e-09
350 K	1.82e-08
360 K	7.83e-08
370 K	3.04e-07
380 K	1.07e-06
390 K	3.49e-06
400 K	1.05e-05
410 K	2.92e-05
420 K	7.65e-05
430 K	0.000189
440 K	0.000439
450 K	0.000972
460 K	0.00205
470 K	0.00415
480 K	0.00805
490 K	0.015
500 K	0.0272
510 K	0.0474
520 K	0.0804
530 K	0.133
540 K	0.213
550 K	0.334
560 K	0.511
570 K	0.767
580 K	1.13
